Read-outs that look alike come from different tables or passages of the source.
What was measured:
[1] = tested on: dog tracheal smooth muscle; experiment: Procedure II: Inhibition of calcium dependent smooth muscle contraction (KCl-challenged dog tracheal rings); details: Canis lupus familiaris, 50 mM KCl contraction, dog trachea
Method: INHIBITION OF CALCIUM DEPENDENT SMOOTH MUSCLE CONTRACTION
Farley, J. M. and Miles, P. R. The Sources of Calcium for Acetylcholine-Induced Contractions of Dog Tracheal Smooth Muscle. J. Pharmacol. Exp. Ther. 207: 340-346,l 1978.
Canines, guinea pigs and rabbits
Trachea from dogs killed by excess KCl injection are stored overnight at 4° C. in oxygenated Krebs-Henseleit buffer. Tracheal rings, one cartilage segment wide (5-10 mm), are cut starting from the bronchial end. After cutting the cartilage, the trachealis muscle tissue is suspended in oxygenated Krebs-Henseleit buffer at 37° C. in a 25 ml tissue bath. After a 60 minutes equilibration period, the tissues are challenged with 10 μM carbachol. After 5 minutes the tissues are rinsed and allowed to rest 50 minutes. The tissues are then challenged with 50 mM KCl and, after 30 minutes, the contractions are quantitated. The tissues are then rinsed and reequilibrated for 50 minutes. Test compounds are then added for 10 minutes, and the tissue is rechallenged with 50 mM KCl. After 30 minutes, the contraction is recorded and used to determine the % inhibition of control.
The percent inhibition of smooth muscle contraction is calculated from response data before and after drug treatment. [formula]

[2] = target: cyclic nucleotide phosphodiesterase fraction III; experiment: Procedure I: Cyclic Nucleotide Phosphodiesterase Assay; type: biochemical
Dog = experiment: Procedure III: Acute In Vivo Cardiotonic Evaluation (cardiac force in anesthetized dogs); details: for Procedure III % Change CF (cardiac force): dose 1.9 mpk, i.v., anesthetized dog, vs pretreatment control
Method: Acute In Vivo Cardiotonic Evaluation
Cardiotonic Activity of Amrinone-Win 40680. Alousi, A. A., Farah, A. I., Lester, G. Y. and Opalka, C. J. Circ. Res. 45:666, 1979.
Adult mongrel dogs are anesthetized with sodium pentobarbital and artifically respired. Arterial pressure is recorded via a femoral artery and the pressure pulse is used to trigger a cardiotachometer for heart rate. Left ventricular pressure is measured with a Millar catheter and dP/dt is derived. Cardiac output is determined by measuring ascending aortic blood flow with an electromagnetic flow probe and myocardial contractile force is measured with a Walton Brodie strain gauge sutured to the right ventricle. Lead II EKG is also recorded.
A standard dose of dopamine or dobutamine is administered to assess myocardial responsiveness.
Test compounds are administered by i.v. infusion or bolus administration and the effects on cardiovascular parameters are determined.
Dose related effects of the test compound on blood pressure, heart rate, dP/dt max. (dp/dt represents the rate at which blood pressure rises), cardiac force, and cardiac output are compared to pretreatment control values, expressed as a % change and rated for activity. Statistical evaluations are made using the appropriate parametric test against a vehicle control.

[3] = concentration inhibiting 50% of cyclic nucleotide phosphodiesterase activity, cyclic AMP substrate, pH 7.4, read-out: Procedure I IC50

Row | IC50 [2, 3] | IC50 ([2]; fraction III, read-out: IC50 versus cyclic nucleotide phosphodiesterase fraction III) | Compound | inhibition at 10 µM [1] | inhibition at 2 µM [1] | Procedure III % Change CF (cardiac force) (Dog) | cardiac force increased (Dog; dog, intravenously at 1.9 mg/kg)
1 | – | – | O=c1c2cc([N+](=O)[O-])ccc2nc2n1CS(=O)(=O)N2 [Example 2, 7-Nitro-1H-1,2,4-thiadiazolo[3,4-b]quinazolin-5-one-2,2-dioxide] | 9% | – | – | –
2 | 35 µM | – | COc1cc2nc3n(c(=O)c2cc1OC)CS(=O)(=O)N3 [Example 3, 7,8-Dimethoxy-1H-1,2,4-thiadiazolo[3,4-b]quinazolin-5-one-2,2-dioxide] | – | 13% | 8% | –
3 | – | – | COc1ccc2nc3n(c(=O)c2c1OC)CS(=O)(=O)N3 [Example 4, 6,7-Dimethoxy-1H-1,2,4-thiadiazolo[3,4-b]quinazolin-5-one-2,2-dioxide] | – | 43% | 22% | –
4 | – | – | O=c1c2cc(Cl)c(Cl)cc2nc2n1CS(=O)(=O)N2 [Example 5, 7,8-Dichloro-1H-1,2,4-thiadiazolo[3,4-b]quinazolin-5-one-2,2-dioxide] | – | 11% | – | –
5 | 70 µM | – | O=c1c2cc(Cl)ccc2nc2n1CS(=O)(=O)N2 [Example 6, 7-Chloro-1H-1,2,4-thiadiazolo[3,4-b]quinazolin-5-one-2,2-dioxide] | 18% | – | – | –
6 | 150 µM | – | O=c1c2ccc(Cl)cc2nc2n1CS(=O)(=O)N2 [Example 7, 8-Chloro-1H-1,2,4-thiadiazolo[3,4-b]quinazolin-5-one-2,2-dioxide] | 31% | – | – | –
7 | 150 µM | – | O=c1c2ccccc2nc2n1CS(=O)(=O)N2 [Example 8, 1H-1,2,4-Thiadiazolo[3,4-b]quinazolin-5-one-2,2-dioxide] | 20% | – | – | –
8 | 13 µM | 13 µM | CN(C(=O)CCCOc1ccc2nc3n(c(=O)c2c1)CS(=O)(=O)N3)C1CCCCC1 [Example 9, 7-(N-Cyclohexyl-N-methyl-4-amino-4-oxobutyloxy)-1H-1,2,4-thiadiazolo[3,4-b]quinazolin-5-one-2,2-dioxide] | – | – | 37% | 37%

Reference: patent US4904667A, “1H-1,2,4-thiadiazolo(3,4-b)quinazolin-5-one-2,2-dioxides, and a method for increasing the cardiac output of a mammal with them” (Ortho Pharmaceutical Corporation, priority 1989, dated 1990)
